Source: patent publication US11602553B2, “Composition of lactobacillus and berry extract” (UNIVERSITY OF FLORIDA RESEARCH FOUNDATION, INCORPORATED, priority 2018, dated 2023)

Assay: Radical scavenging activity (DPPH method)
Details: positive control
Method: Residual phenolic in growth media ([…]) were recovered as follows: samples of the growth media were taken at different time points along L. johnsonii N6.2 growth kinetics. The supernatant was recovered by centrifugation (4000 g for 30 min at 4° C.) and saved as aliquots at -20° C. until processing. Soluble phenolic compounds were recovered by solid-phase extraction using […] column (ThermoScientific, WI, USA) as described by Correa-Betanz et al. (2015). The total scavenging activity of the culture media was assessed by using the DPPH method described by Dong et al. (2017). The samples ([…] or its polyphenol enriched fractions) were diluted (1⁄2 and 1/10) in methanol. […] The quenching ability of L-ascorbic acid was used as a positive control. The absorbance was measured at 515 nm using a Sinergy HT microplate reader (Biotek, Winooski, Vt., USA). The scavenging activity (SA) was estimated by the following formula: % SA=[(Abscontrol-blank-Abssample-blank)/Abscontrol-blank]×100. Total radical scavenging activity (% SA) is expressed in percent of quenching activity per μg of gallic acid equivalents.

Compound: O=C1O[C@H]([C@@H](O)CO)C(O)=C1O [L-ascorbic acid]
- DPPH scavenging activity (% SA): 20.2±0.85 % SA
